Results as given in the supplement of paper PMC10307832.

Columns and labels:
Experiment in all cases: relative viability (nuclei count vs DMSO), 5 days (fraction); higher = more cells survive
201T = system: 201T
How it was run: (§1)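 Lung cancer cell lines were pin-tool dosed in 1536-well plates on the day after seeding, with either a lone drug or a fixed anchor-drug dose plus five library-drug doses (not always all listed) in √10 steps. Nuclei were counted on 4× images after 5 days. Relative viability is the ratio of treated-well to vehicle-well nuclei counts, with each value a median of duplicate plates.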

A-427 = system: A-427
How it was run: as §1

BEN = system: BEN
How it was run: as §1

COR-L23 = system: COR-L23
How it was run: as §1

EKVX = system: EKVX
How it was run: as §1

HARA = system: HARA
How it was run: as §1

HCC-15 = system: HCC-15
How it was run: as §1

HCC-44 = system: HCC-44
How it was run: as §1

HCC-827 = system: HCC-827
How it was run: as §1

NCI-H1437 = system: NCI-H1437
How it was run: as §1

NCI-H1650 = system: NCI-H1650
How it was run: as §1

NCI-H1666 = system: NCI-H1666
How it was run: as §1

NCI-H1792 = system: NCI-H1792
How it was run: as §1

NCI-H1975 = system: NCI-H1975
How it was run: as §1

NCI-H23 = system: NCI-H23
How it was run: as §1

NCI-H358 = system: NCI-H358
How it was run: as §1

NCI-H596 = system: NCI-H596
How it was run: as §1

NCI-H650 = system: NCI-H650
How it was run: as §1

NCI-H838 = system: NCI-H838
How it was run: as §1

SK-MES-1 = system: SK-MES-1
How it was run: as §1

## CCN(CC)CCCCNc1ncc2cc(-c3cc(OC)cc(OC)c3)c(NC(=O)NC(C)(C)C)nc2n1 + CS(=O)(=O)CCNCc1ccc(-c2ccc3ncnc(Nc4ccc(OCc5cccc(F)c5)c(Cl)c4)c3c2)o1 [Lapatinib] (partner 2 µM)
201T; first compound 0.01 µM
  relative viability: 1.03
201T; first compound 0.03162 µM
  relative viability: 1.04
201T; first compound 0.1 µM
  relative viability: 1.12
201T; first compound 0.3162 µM
  relative viability: 1.08
201T; first compound 1 µM
  relative viability: 0.884
A-427; first compound 0.01 µM
  relative viability: 1.15
A-427; first compound 0.03162 µM
  relative viability: 0.971
A-427; first compound 0.1 µM
  relative viability: 1.08
A-427; first compound 0.3162 µM
  relative viability: 1.1
A-427; first compound 1 µM
  relative viability: 0.899
BEN; first compound 0.01 µM
  relative viability: 0.76
BEN; first compound 0.03162 µM
  relative viability: 0.539
BEN; first compound 0.1 µM
  relative viability: 0.767
BEN; first compound 0.3162 µM
  relative viability: 0.835
BEN; first compound 1 µM
  relative viability: 0.651
COR-L23; first compound 0.01 µM
  relative viability: 1.09
COR-L23; first compound 0.03162 µM
  relative viability: 0.973
COR-L23; first compound 0.1 µM
  relative viability: 0.943
COR-L23; first compound 0.3162 µM
  relative viability: 1.19
COR-L23; first compound 1 µM
  relative viability: 0.881
EKVX; first compound 0.01 µM
  relative viability: 0.187
EKVX; first compound 0.03162 µM
  relative viability: 0.181
EKVX; first compound 0.1 µM
  relative viability: 0.178
EKVX; first compound 0.3162 µM
  relative viability: 0.207
EKVX; first compound 1 µM
  relative viability: 0.207
HARA; first compound 0.01 µM
  relative viability: 0.833
HARA; first compound 0.03162 µM
  relative viability: 0.469
HARA; first compound 0.1 µM
  relative viability: 0.764
HARA; first compound 0.3162 µM
  relative viability: 0.581
HARA; first compound 1 µM
  relative viability: 0.227
HCC-15; first compound 0.01 µM
  relative viability: 0.871
HCC-15; first compound 0.03162 µM
  relative viability: 0.944
HCC-15; first compound 0.1 µM
  relative viability: 0.83
HCC-15; first compound 0.3162 µM
  relative viability: 1.07
HCC-15; first compound 1 µM
  relative viability: 0.779
HCC-44; first compound 0.01 µM
  relative viability: 1.07
HCC-44; first compound 0.03162 µM
  relative viability: 1.05
HCC-44; first compound 0.1 µM
  relative viability: 1.26
HCC-44; first compound 0.3162 µM
  relative viability: 1.28
HCC-44; first compound 1 µM
  relative viability: 0.865
HCC-827; first compound 0.01 µM
  relative viability: 0.214
HCC-827; first compound 0.03162 µM
  relative viability: 0.206
HCC-827; first compound 0.1 µM
  relative viability: 0.177
HCC-827; first compound 0.3162 µM
  relative viability: 0.177
HCC-827; first compound 1 µM
  relative viability: 0.172
NCI-H1437; first compound 0.01 µM
  relative viability: 0.809
NCI-H1437; first compound 0.03162 µM
  relative viability: 0.841
NCI-H1437; first compound 0.1 µM
  relative viability: 0.906
NCI-H1437; first compound 0.3162 µM
  relative viability: 0.909
NCI-H1437; first compound 1 µM
  relative viability: 0.653
NCI-H1650; first compound 0.01 µM
  relative viability: 0.714
NCI-H1650; first compound 0.03162 µM
  relative viability: 0.733
NCI-H1650; first compound 0.1 µM
  relative viability: 0.614
NCI-H1650; first compound 0.3162 µM
  relative viability: 0.35
NCI-H1650; first compound 1 µM
  relative viability: 0.242
NCI-H1666; first compound 0.01 µM
  relative viability: 0.819
NCI-H1666; first compound 0.03162 µM
  relative viability: 0.62
NCI-H1666; first compound 0.1 µM
  relative viability: 0.604
NCI-H1666; first compound 0.3162 µM
  relative viability: 0.684
NCI-H1666; first compound 1 µM
  relative viability: 0.498
NCI-H1792; first compound 0.01 µM
  relative viability: 0.97
NCI-H1792; first compound 0.03162 µM
  relative viability: 0.886
NCI-H1792; first compound 0.1 µM
  relative viability: 1.21
NCI-H1792; first compound 0.3162 µM
  relative viability: 1.64
NCI-H1792; first compound 1 µM
  relative viability: 0.433
NCI-H1975; first compound 0.01 µM
  relative viability: 1.02
NCI-H1975; first compound 0.03162 µM
  relative viability: 0.882
NCI-H1975; first compound 0.1 µM
  relative viability: 0.952
NCI-H1975; first compound 0.3162 µM
  relative viability: 1.12
NCI-H1975; first compound 1 µM
  relative viability: 0.693
NCI-H23; first compound 0.01 µM
  relative viability: 1.09
NCI-H23; first compound 0.03162 µM
  relative viability: 1.12
NCI-H23; first compound 0.1 µM
  relative viability: 1.36
NCI-H23; first compound 0.3162 µM
  relative viability: 1.1
NCI-H23; first compound 1 µM
  relative viability: 0.961
NCI-H358; first compound 0.01 µM
  relative viability: 0.449
NCI-H358; first compound 0.03162 µM
  relative viability: 0.484
NCI-H358; first compound 0.1 µM
  relative viability: 0.457
NCI-H358; first compound 0.3162 µM
  relative viability: 0.498
NCI-H358; first compound 1 µM
  relative viability: 0.406
NCI-H596; first compound 0.01 µM
  relative viability: 0.967
NCI-H596; first compound 0.03162 µM
  relative viability: 1.04
NCI-H596; first compound 0.1 µM
  relative viability: 1.11
NCI-H596; first compound 0.3162 µM
  relative viability: 0.977
NCI-H596; first compound 1 µM
  relative viability: 0.854
NCI-H650; first compound 0.01 µM
  relative viability: 0.988
NCI-H650; first compound 0.03162 µM
  relative viability: 0.944
NCI-H650; first compound 0.1 µM
  relative viability: 1.06
NCI-H650; first compound 0.3162 µM
  relative viability: 1.18
NCI-H650; first compound 1 µM
  relative viability: 0.734
NCI-H838; first compound 0.01 µM
  relative viability: 0.865
NCI-H838; first compound 0.03162 µM
  relative viability: 0.993
NCI-H838; first compound 0.1 µM
  relative viability: 1.2
NCI-H838; first compound 0.3162 µM
  relative viability: 0.969
NCI-H838; first compound 1 µM
  relative viability: 0.563
SK-MES-1; first compound 0.01 µM
  relative viability: 0.518
SK-MES-1; first compound 0.03162 µM
  relative viability: 0.456
SK-MES-1; first compound 0.1 µM
  relative viability: 0.542
SK-MES-1; first compound 0.3162 µM
  relative viability: 0.455
SK-MES-1; first compound 1 µM
  relative viability: 0.354
